This note sets out measurements from PubChem BioAssay (NCI).

SMILES strings stand for the structures.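 Each compound was tested at five concentrations against cells in 96-well plates for 48 hours. GI50 marks 50% less growth. The concentration for full growth arrest is given as TGI.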

Among the test systems are HCT-116 colon; HL-60(TB) leukemia; OVCAR-8 ovarian; SK-MEL-2 melanoma; SK-MEL-5 melanoma; SN12C renal; SNB-19 CNS; SNB-75 CNS; SR leukemia; HCC-2998 colon.
What all share (test): DTP human tumour cell line panel, 48 h

What is called GI50 is the concentration at which growth is held to half of that of the control. The term TGI denotes the concentration giving total growth inhibition. A lower TGI goes with more potent growth arrest. As to `CCCCOC(=O)N1CCN(/[N+]([O-])=N/Oc2ccc([N+](=O)[O-])cc2[N+](=O)[O-])CC1`, the GI50 is 2.07 µM in the assay on HCT-116 colon; 6.85 µM with HL-60(TB) leukemia; 25.5 µM in the assay with OVCAR-8 ovarian; 4.55 µM in the assay with SK-MEL-2 melanoma; 4.91 µM with SK-MEL-5 melanoma; 11 µM in the assay on SN12C renal. Moreover, the GI50 in the assay on SNB-19 CNS is 15.1 µM; in the assay on SNB-75 CNS, 21.1 µM; with SR leukemia it was above 100 µM. For the same compound, the total growth inhibition concentration (TGI) in the assay with HCT-116 colon was 3.53 µM; in the assay on HL-60(TB) leukemia it was above 100 µM; in the assay on OVCAR-8 ovarian it was above 100 µM; with SK-MEL-2 melanoma it was 21.8 µM; with SK-MEL-5 melanoma, 19.8 µM; in the assay with SN12C renal it was 31.5 µM. Further, the results for the total growth inhibition concentration (TGI) in the assay on SNB-19 CNS, in the assay on SNB-75 CNS and with SR leukemia were 36.8 µM, 37.9 µM and above 100 µM, respectively.
Consider `COc1ccc(CCN2CC=Cn3c2nc2ccccc2c3=O)cc1`, for which the GI50 is 0.0332 µM in the assay on HCC-2998 colon; 0.0347 µM in the assay on HCT-116 colon; below 0.0116 µM in the assay with HL-60(TB) leukemia; 0.054 µM with OVCAR-8 ovarian; 0.0334 µM with SK-MEL-2 melanoma; 0.0265 µM in the assay with SK-MEL-5 melanoma. For the same compound, the figures for the GI50 in the assay on SN12C renal, in the assay with SNB-19 CNS and with SR leukemia were 0.116 µM, 0.0614 µM and 0.0354 µM, respectively. Further, the TGI with HCC-2998 colon is 35.5 µM; with HCT-116 colon, above 100 µM; with HL-60(TB) leukemia, 0.0648 µM; in the assay with OVCAR-8 ovarian, above 41 µM; with SK-MEL-2 melanoma it was 32.9 µM; with SK-MEL-5 melanoma it was 0.154 µM. The results for the TGI in the assay on SN12C renal, in the assay on SNB-19 CNS and in the assay with SR leukemia were above 61.1 µM, above 100 µM and above 100 µM, respectively.
For `COC1CC(O[C@H]2CC[C@@]3(C)[C@H](CC[C@@H]4[C@@H]3CC[C@]3(C)[C@@H](C5=CC(=O)OC5)[C@@H](OC(C)=O)C[C@]43O)C2)OC(C)C1O` (some centres not stated), the GI50 in the assay on HCC-2998 colon, in the assay with HCT-116 colon, with HL-60(TB) leukemia, in the assay on OVCAR-8 ovarian, in the assay on SK-MEL-2 melanoma and in the assay with SK-MEL-5 melanoma was below 0.01 µM in each case. The GI50 with SNB-19 CNS, with SNB-75 CNS and in the assay with SR leukemia was below 0.01 µM in each case. Besides, the concentration for total growth inhibition (TGI) in the assay with HCC-2998 colon is below 0.0187 µM; in the assay with HCT-116 colon, below 0.01 µM; in the assay on HL-60(TB) leukemia, below 0.0331 µM; with OVCAR-8 ovarian, below 0.01 µM; with SK-MEL-2 melanoma it was below 0.0105 µM; in the assay with SK-MEL-5 melanoma, below 0.01 µM. Also, the TGI with SNB-19 CNS and in the assay on SNB-75 CNS was below 0.01 µM throughout.
Regarding `O=C1c2cc3c(cc2[C@@H]2[C@H]1c1ccc([N+](=O)[O-])cc1C(=O)N2CCCBr)OCO3`, the GI50 in the assay on HCC-2998 colon is below 0.0125 µM; in the assay with HL-60(TB) leukemia, below 0.01 µM; with OVCAR-8 ovarian, below 0.01 µM; with SK-MEL-2 melanoma it was 2.15 µM; with SK-MEL-5 melanoma it was below 0.01 µM; in the assay on SN12C renal, below 0.01 µM. Also, the GI50 in the assay with SNB-19 CNS, in the assay with SNB-75 CNS and in the assay with SR leukemia was below 0.01 µM throughout. Besides, the TGI is 0.117 µM with HCC-2998 colon; above 100 µM in the assay on HL-60(TB) leukemia; 0.271 µM with OVCAR-8 ovarian; above 100 µM in the assay with SK-MEL-2 melanoma; 0.0101 µM with SK-MEL-5 melanoma; below 0.01 µM with SN12C renal. The TGI in the assay with SNB-19 CNS is above 100 µM; in the assay with SNB-75 CNS, 0.0775 µM; with SR leukemia it was below 0.01 µM.
Take `CC(C)CCCC(C)[C@H]1CCC2[C@@H]3CCC4Cc5nc6c(nc5C[C@]4(C)C3CC[C@@]21C)CC1CC[C@@H]2C(CC[C@@]3(C)C2CC[C@@H]3C(C)CCCC(C)C)[C@@]1(C)C6` (some centres not stated): the concentration for total growth inhibition (TGI) in the assay on HCT-116 colon, with HL-60(TB) leukemia, in the assay on OVCAR-8 ovarian, with SK-MEL-2 melanoma, with SK-MEL-5 melanoma and with SN12C renal was above 100 µM throughout. The TGI with SNB-19 CNS, in the assay with SNB-75 CNS and in the assay on SR leukemia was above 100 µM each time.
With `CC(CN(C)C)/C(=N\Nc1ccccc1)c1ccccc1` (configuration not stated), the TGI was above 100 µM in the assay with HCT-116 colon; 8.34 µM in the assay with HL-60(TB) leukemia; above 100 µM in the assay on OVCAR-8 ovarian; 17.5 µM in the assay with SK-MEL-5 melanoma; above 100 µM in the assay with SN12C renal; 34.4 µM in the assay on SNB-19 CNS. Moreover, the results for the concentration for total growth inhibition (TGI) with SNB-75 CNS and with SR leukemia were 66.8 µM and 23.1 µM, respectively.
With `COc1cc(C(=O)c2c(-c3ccccc3)oc3c(OC)cccc23)cc(OC)c1OC`, the GI50 was 0.211 µM in the assay with HCC-2998 colon; 0.0448 µM in the assay on HL-60(TB) leukemia; 0.11 µM in the assay on OVCAR-8 ovarian; 2.4 µM in the assay on SK-MEL-2 melanoma; 0.157 µM in the assay on SK-MEL-5 melanoma; 0.257 µM in the assay with SN12C renal. In addition, the GI50 was 0.0789 µM in the assay on SNB-19 CNS, 0.0234 µM in the assay on SNB-75 CNS and 0.0363 µM with SR leukemia. In addition, the TGI was above 100 µM with HCC-2998 colon; 0.2 µM in the assay on HL-60(TB) leukemia; above 100 µM with OVCAR-8 ovarian; above 84.5 µM with SK-MEL-2 melanoma; 0.733 µM in the assay on SK-MEL-5 melanoma; above 100 µM in the assay on SN12C renal. Besides, the results for the total growth inhibition concentration (TGI) in the assay on SNB-19 CNS, with SNB-75 CNS and in the assay with SR leukemia were above 100 µM, 0.552 µM and above 100 µM, respectively.
As to `CC1=NN(C(=O)c2ccccc2O)C(=O)/C1=C/c1ccc(O)cc1`, the total growth inhibition concentration (TGI) in the assay with HCC-2998 colon is above 100 µM; in the assay with HCT-116 colon it was above 100 µM; with HL-60(TB) leukemia, above 41.1 µM; in the assay on OVCAR-8 ovarian, above 100 µM; in the assay on SK-MEL-5 melanoma, above 100 µM; with SN12C renal, above 78.7 µM. Moreover, the TGI with SNB-19 CNS, in the assay with SNB-75 CNS and with SR leukemia was above 100 µM each time.
As for `COC(C(=O)NN)c1ccccc1` (configuration not stated), the concentration for total growth inhibition (TGI) in the assay on HCC-2998 colon, with OVCAR-8 ovarian, with SK-MEL-2 melanoma, in the assay on SK-MEL-5 melanoma, with SN12C renal and with SNB-19 CNS was above 100 µM in each case. The TGI in the assay on SNB-75 CNS and with SR leukemia was above 100 µM throughout.
Regarding `N/N=C(/C(=O)Nc1cccc(Cl)c1)C(C(=O)c1ccc(O)cc1O)C1OC(=O)c2ccccc21` (configuration not stated), the concentration for total growth inhibition (TGI) in the assay on HCC-2998 colon, in the assay with HCT-116 colon, in the assay with HL-60(TB) leukemia, in the assay with OVCAR-8 ovarian, in the assay on SK-MEL-2 melanoma and with SK-MEL-5 melanoma was above 100 µM in each case. The TGI with SN12C renal, in the assay with SNB-19 CNS and in the assay on SR leukemia was above 100 µM in each case.
